Experimental data reported in patent US9302999B2, “Substituted triazoles as herbicides” (E. I. DU PONT DE NEMOURS AND COMPANY, priority 2012, dated 2016).

What was measured:
Format in all cases: in vivo
[1] = system: crabgrass, large (large crabgrass, Digitaria sanguinalis); test: Test A pre-/postemergence: crabgrass, large; conditions: for Crabgrass, Large plant response rating: Postemergence; for Plant response rating, Crabgrass, Large: Preemergence
How it was run: (§1)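 Pre: directed soil spray after planting in loam + sand. Post: same formulation (non-phytotoxic solvent + surfactant) on 1–2-leaf plants, 2–10 cm. Greenhouse ~10 d; visual injury 0–100 vs untreated.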

[2] = system: wheat (Triticum aestivum); test: Test A pre-/postemergence: wheat; conditions: for Wheat plant response rating: Postemergence; for Plant response rating, Wheat: Preemergence
How it was run: as §1

[3] = system: morningglory (Ipomoea spp.); test: Test A pre-/postemergence: morningglory; conditions: for Morningglory plant response rating: Postemergence; for Plant response rating, Morningglory: Preemergence
How it was run: as §1

[4] = system: barnyardgrass (Echinochloa crus-galli); test: Test B flooded paddy: barnyardgrass; conditions: Flood; 250 g ai/ha; applied to paddy water at 2-leaf stage; visually evaluated after 13 to 15 days
How it was run: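 At two leaves, seedlings received the test compound via the paddy water, pots having been flooded 3 cm over the soil surface and kept so. Greenhouse-held for 13 to 15 days, then judged by eye against controls on a scale running 0 (no effect) to 100 (complete control).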

[5] = system: foxtail, giant (giant foxtail, Setaria faberii); test: Test A pre-/postemergence: foxtail, giant; conditions: for Foxtail, Giant plant response rating: Postemergence; for Plant response rating, Foxtail, Giant: Preemergence
How it was run: as §1

corn (Zea mays) = test: Test A pre-/postemergence: corn; conditions: for Corn plant response rating: Postemergence; for Plant response rating, Corn: Preemergence
How it was run: as §1

[6] = system: ducksalad (Heteranthera limosa); test: Test B flooded paddy: ducksalad; conditions: Flood; 250 g ai/ha; applied to paddy water at 2-leaf stage; visually evaluated after 13 to 15 days
Procedure: (§2) Seeds selected from rice (Oryza sativa), sedge, umbrella (small-flower umbrella sedge Cyperus difformis), ducksalad (Heteranthera limosa), and barnyardgrass (Echinochloa crus-galli) were grown to the 2-leaf stage for testing. At time of treatment, test pots were flooded to 3 cm above the soil surface, treated by application of test compounds directly to the paddy water, and then maintained at that water depth for the duration of the test.
(§3) Treated plants and controls were maintained in a greenhouse for 13 to 15 days, after which time all species were compared to controls and visually evaluated. Plant response ratings, summarized in Table B, are based on a scale of 0 to 100 where 0 is no effect and 100 is complete control. A dash (-) response means no test result.

[7] = system: barnyardgrass (Echinochloa crus-galli); test: Test A pre-/postemergence: barnyardgrass; conditions: for Barnyardgrass plant response rating: Postemergence; for Plant response rating, Barnyardgrass: Preemergence
How it was run: as §1

[8] = system: velvetleaf (Abutilon theophrasti); test: Test A pre-/postemergence: velvetleaf; conditions: for Velvetleaf plant response rating: Postemergence; for Plant response rating, Velvetleaf: Preemergence
How it was run: as §1

[9] = system: pigweed (Amaranthus retroflexus); test: Test A pre-/postemergence: pigweed; conditions: for Pigweed plant response rating: Postemergence; for Plant response rating, Pigweed: Preemergence
How it was run: as §1

[10] = system: sedge, umbrella (small-flower umbrella sedge Cyperus difformis); test: Test B flooded paddy: sedge, umbrella; conditions: Flood; 250 g ai/ha; applied to paddy water at 2-leaf stage; visually evaluated after 13 to 15 days
Procedure: as §2, §3

rice (Oryza sativa) = test: Test B flooded paddy: rice; conditions: Flood; 250 g ai/ha; applied to paddy water at 2-leaf stage; visually evaluated after 13 to 15 days
Procedure: as §2, §3

[11] = 125 g ai/ha, 0 to 100 scale, 0 is no effect, 100 is complete control
[12] = 500 g ai/ha, visual rating on 0 to 100 scale (0 no effect, 100 complete control), approximately ten days
[13] = 125 g ai/ha, 0 to 100 scale (0 no effect, 100 complete control)
[14] = 500 g ai/ha, 0 to 100 scale, 0 is no effect, 100 is complete control

In the case of `Cc1nn(-c2ccccc2Cl)nc1C(=O)c1cccc(C(F)(F)F)c1` [Compound 5], the “Crabgrass, Large plant response rating” value [1, 11] is reported as 0, the “Crabgrass, Large plant response rating” value [1, 12] is reported as 0 and the “Plant response rating, Crabgrass, Large” value [1, 13] is reported as 0. For the same molecule, the “Plant response rating, Crabgrass, Large” value [1, 14] was 0, the “Wheat plant response rating” value [2, 11] was 0 and the “Wheat plant response rating” value [2, 12] was 0. The “Plant response rating, Wheat” value [2, 13] was 0, the “Plant response rating, Wheat” value [2, 14] was 0 and the “Morningglory plant response rating” value [3, 11] was 0. For the same molecule, the “Morningglory plant response rating” value [3, 12] was 0, the “Plant response rating, Morningglory” value [3, 13] was 0 and the “Plant response rating, Morningglory” value [3, 14] was 0. The “Plant response rating, Barnyardgrass (0 to 100 scale, 0 is no effect, 100 is complete control)” value [4] was 0, the “Foxtail, Giant plant response rating” value [5, 11] was 0 and the “Foxtail, Giant plant response rating” value [5, 12] was 0. The “Plant response rating, Foxtail, Giant” value [5, 13] was 0, the “Plant response rating, Foxtail, Giant” value [5, 14] was 0 and the “Corn plant response rating” value (corn (Zea mays); [11]) was 0. The “Corn plant response rating” value (corn (Zea mays); [12]) was 0, the “Plant response rating, Corn” value (corn (Zea mays); [13]) was 0 and the “Plant response rating, Corn” value (corn (Zea mays); [14]) was 0. For the same molecule, the “Plant response rating, Ducksalad (0 to 100 scale, 0 is no effect, 100 is complete control)” value [6] was 0, the “Barnyardgrass plant response rating” value [7, 11] was 0 and the “Barnyardgrass plant response rating” value [7, 12] was 0. For the same molecule, the “Plant response rating, Barnyardgrass” value [7, 13] was 0, the “Plant response rating, Barnyardgrass” value [7, 14] was 0 and the “Velvetleaf plant response rating” value [8, 11] was 0. The “Velvetleaf plant response rating” value [8, 12] was 0, the “Plant response rating, Velvetleaf” value [8, 13] was 0 and the “Plant response rating, Velvetleaf” value [8, 14] was 0. For the same molecule, the “Pigweed plant response rating” value [9, 11] was 10, the “Pigweed plant response rating” value [9, 12] was 30 and the “Plant response rating, Pigweed” value [9, 13] was 0. The “Plant response rating, Pigweed” value [9, 14] was 0, the “Plant response rating, Sedge, Umbrella (0 to 100 scale, 0 is no effect, 100 is complete control)” value [10] was 0 and the “Plant response rating, Rice (0 to 100 scale, 0 is no effect, 100 is complete control)” value (rice (Oryza sativa)) was 0.

For `CSc1ccccc1-n1nc(C)c(C(=O)c2cccc(C(F)(F)F)c2)n1` [Compound 6], the “Crabgrass, Large plant response rating” value [1, 11] was 0, the “Crabgrass, Large plant response rating” value [1, 12] was 20 and the “Plant response rating, Crabgrass, Large” value [1, 13] was 0. For the same molecule, the “Plant response rating, Crabgrass, Large” value [1, 14] was 0, the “Wheat plant response rating” value [2, 11] was 0 and the “Wheat plant response rating” value [2, 12] was 0. For the same molecule, the “Plant response rating, Wheat” value [2, 13] was 0, the “Plant response rating, Wheat” value [2, 14] was 0 and the “Morningglory plant response rating” value [3, 11] was 0. The “Morningglory plant response rating” value [3, 12] was 0, the “Plant response rating, Morningglory” value [3, 13] was 0 and the “Plant response rating, Morningglory” value [3, 14] was 0. For the same molecule, the “Plant response rating, Barnyardgrass (0 to 100 scale, 0 is no effect, 100 is complete control)” value [4] was 0, the “Foxtail, Giant plant response rating” value [5, 11] was 0 and the “Foxtail, Giant plant response rating” value [5, 12] was 10. For the same molecule, the “Plant response rating, Foxtail, Giant” value [5, 13] was 0, the “Plant response rating, Foxtail, Giant” value [5, 14] was 0 and the “Corn plant response rating” value (corn (Zea mays); [11]) was 0. The “Corn plant response rating” value (corn (Zea mays); [12]) was 0, the “Plant response rating, Corn” value (corn (Zea mays); [13]) was 0 and the “Plant response rating, Corn” value (corn (Zea mays); [14]) was 0. The “Plant response rating, Ducksalad (0 to 100 scale, 0 is no effect, 100 is complete control)” value [6] was 0, the “Barnyardgrass plant response rating” value [7, 11] was 0 and the “Barnyardgrass plant response rating” value [7, 12] was 0. For the same molecule, the “Plant response rating, Barnyardgrass” value [7, 13] was 0, the “Plant response rating, Barnyardgrass” value [7, 14] was 0 and the “Velvetleaf plant response rating” value [8, 11] was 0. The “Velvetleaf plant response rating” value [8, 12] was 0, the “Plant response rating, Velvetleaf” value [8, 13] was 0 and the “Plant response rating, Velvetleaf” value [8, 14] was 0. The “Pigweed plant response rating” value [9, 11] was 0, the “Pigweed plant response rating” value [9, 12] was 30 and the “Plant response rating, Pigweed” value [9, 13] was 0. The “Plant response rating, Pigweed” value [9, 14] was 0, the “Plant response rating, Sedge, Umbrella (0 to 100 scale, 0 is no effect, 100 is complete control)” value [10] was 0 and the “Plant response rating, Rice (0 to 100 scale, 0 is no effect, 100 is complete control)” value (rice (Oryza sativa)) was 0.
